In ChEMBL document CHEMBL6109139, “Rational Design of the First Dual Agonist at Trace Amine-Associated Receptor 1 and 5-HT2C Receptors Based on Binding Pocket Similarity for the Treatment of Schizophrenia and Alzheimer's Disease-Related Psychosis” (J Med Chem, 2025):

Key:
[1] = Metabolic stability in human liver microsomes assessed as intrinsic clearance at 1 uM incubated for 60 mins by LC-MS/MS analysis; format: ADME, Microsome; conditions: read-out: CLH
[2] = biological target: Cytochrome P450 1A2 (Homo sapiens, UniProt P05177); test: Inhibition of CYP1A2 in human liver microsomes in presence of NADPH by LC-MS/MS analysis; format: ADME, Microsome
[3] = Metabolic stability in rat liver microsomes assessed as intrinsic clearance at 1 uM incubated for 60 mins by LC-MS/MS analysis; format: ADME, Microsome; conditions: read-out: CLH
[4] = biological target: Cytochrome P450 2B6 (Homo sapiens, UniProt P20813); test: Inhibition of CYP2B6 in human liver microsomes in presence of NADPH by LC-MS/MS analysis; format: ADME, Microsome
[5] = biological target: Cytochrome P450 2C19 (Homo sapiens, UniProt P33261); test: Inhibition of CYP2C19 in human liver microsomes in presence of NADPH by LC-MS/MS analysis; format: ADME, Microsome
[6] = Drug uptake in male Sprague-Dawley rat brain assessed as parent compound remaining measured after 6 hrs; format: ADME, tissue-based; conditions: read-out: Activity
[7] = Plasma protein binding in rat assessed as unbound fraction by LC-MS/MS analysis; format: ADME, cell-free
[8] = Inhibition of CYP2D6 in human liver microsomes in presence of NADPH by LC-MS/MS analysis; format: ADME, Microsome
[9] = biological target: Cytochrome P450 3A4 (Homo sapiens, UniProt P08684); test: Inhibition of CYP3A4 in human liver microsomes in presence of NADPH by LC-MS/MS analysis; format: ADME, Microsome
[10] = Apparent permeability across apical to basolateral side in human Caco-2 cells at 2 uM by LC-MS/MS analysis; format: ADME, cell-based
[11] = biological target: T1, 5-hydroxytryptamine receptor 2C (Homo sapiens, UniProt P28335); test: Partial agonist activity at recombinant human 5-HT2CR expressed in HEK293 cells incubated for 2 hrs by FLIPR calcium assay; format: functional, cell-based
T1 sequence (P28335 whole entry): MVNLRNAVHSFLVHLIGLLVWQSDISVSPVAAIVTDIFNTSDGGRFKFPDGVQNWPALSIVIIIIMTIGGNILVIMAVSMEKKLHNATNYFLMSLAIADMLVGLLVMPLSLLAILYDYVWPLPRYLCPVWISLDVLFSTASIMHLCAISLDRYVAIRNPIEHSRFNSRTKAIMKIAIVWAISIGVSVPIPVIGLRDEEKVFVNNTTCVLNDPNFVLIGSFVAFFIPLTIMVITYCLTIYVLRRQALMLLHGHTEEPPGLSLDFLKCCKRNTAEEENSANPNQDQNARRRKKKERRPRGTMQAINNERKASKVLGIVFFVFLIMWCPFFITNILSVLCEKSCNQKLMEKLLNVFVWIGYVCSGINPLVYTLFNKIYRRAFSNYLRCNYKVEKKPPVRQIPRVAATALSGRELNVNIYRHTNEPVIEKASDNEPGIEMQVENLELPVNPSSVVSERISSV

[12] = Efflux ratio of apparent permeability across apical to basolateral side in human Caco-2 cells at 2 uM by LC-MS/MS analysis; format: ADME, cell-based
[13] = Plasma protein binding in dog assessed as unbound fraction by LC-MS/MS analysis; format: ADME, cell-free, Canis lupus familiaris
[14] = biological target: Cytochrome P450 2C9 (Homo sapiens, UniProt P11712); test: Inhibition of CYP2C9 in human liver microsomes in presence of NADPH by LC-MS/MS analysis; format: ADME, Microsome
[15] = Plasma protein binding in human assessed as unbound fraction by LC-MS/MS analysis; format: ADME, cell-free
[16] = biological target: Cytochrome P450 2C8 (Homo sapiens, UniProt P10632); test: Inhibition of CYP2C8 in human liver microsomes in presence of NADPH by LC-MS/MS analysis; format: ADME, Microsome
Sequence of Cytochrome P450 2C8 (P10632 whole entry): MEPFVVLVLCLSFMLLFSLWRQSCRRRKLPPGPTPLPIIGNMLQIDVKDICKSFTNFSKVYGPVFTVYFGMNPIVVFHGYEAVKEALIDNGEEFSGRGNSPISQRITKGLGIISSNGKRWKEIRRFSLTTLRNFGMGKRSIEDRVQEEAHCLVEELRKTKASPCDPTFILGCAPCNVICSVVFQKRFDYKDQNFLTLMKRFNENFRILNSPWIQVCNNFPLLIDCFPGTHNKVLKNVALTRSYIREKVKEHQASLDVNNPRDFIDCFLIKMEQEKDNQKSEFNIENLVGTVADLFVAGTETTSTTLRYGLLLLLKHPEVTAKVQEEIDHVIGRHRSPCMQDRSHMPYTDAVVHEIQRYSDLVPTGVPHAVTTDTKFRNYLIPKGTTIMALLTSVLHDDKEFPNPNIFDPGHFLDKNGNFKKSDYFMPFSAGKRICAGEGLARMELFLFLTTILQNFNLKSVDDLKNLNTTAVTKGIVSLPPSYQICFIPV

Sequence of Cytochrome P450 1A2 (P05177 whole entry): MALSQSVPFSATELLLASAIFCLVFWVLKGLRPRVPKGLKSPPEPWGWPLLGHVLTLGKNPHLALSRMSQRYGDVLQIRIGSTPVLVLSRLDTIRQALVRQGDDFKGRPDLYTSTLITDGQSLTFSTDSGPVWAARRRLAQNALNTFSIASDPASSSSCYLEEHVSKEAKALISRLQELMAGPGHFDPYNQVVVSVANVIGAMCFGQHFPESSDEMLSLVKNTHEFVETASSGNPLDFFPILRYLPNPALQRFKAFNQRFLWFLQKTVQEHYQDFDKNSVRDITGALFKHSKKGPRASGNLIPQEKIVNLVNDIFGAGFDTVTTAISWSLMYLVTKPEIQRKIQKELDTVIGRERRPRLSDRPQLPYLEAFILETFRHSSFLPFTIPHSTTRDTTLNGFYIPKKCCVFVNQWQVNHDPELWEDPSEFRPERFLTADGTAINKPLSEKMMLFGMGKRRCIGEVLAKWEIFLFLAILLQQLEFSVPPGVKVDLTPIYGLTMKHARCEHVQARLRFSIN
Sequence of Cytochrome P450 2C19 (P33261 whole entry): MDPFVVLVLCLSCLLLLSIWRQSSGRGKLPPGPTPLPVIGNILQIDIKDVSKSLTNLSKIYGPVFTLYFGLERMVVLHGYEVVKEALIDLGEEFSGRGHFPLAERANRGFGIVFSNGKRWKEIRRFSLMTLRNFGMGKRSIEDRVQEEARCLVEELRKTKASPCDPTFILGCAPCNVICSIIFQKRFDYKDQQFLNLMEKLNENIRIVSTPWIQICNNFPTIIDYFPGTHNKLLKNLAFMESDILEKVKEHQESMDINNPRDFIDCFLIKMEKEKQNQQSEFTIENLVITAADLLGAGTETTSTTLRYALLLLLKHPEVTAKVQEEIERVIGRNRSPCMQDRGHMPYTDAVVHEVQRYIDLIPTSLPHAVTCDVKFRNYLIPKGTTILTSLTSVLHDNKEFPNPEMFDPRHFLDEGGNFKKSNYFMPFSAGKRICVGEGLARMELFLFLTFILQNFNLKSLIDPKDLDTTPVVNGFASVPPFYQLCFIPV
Sequence of Cytochrome P450 3A4 (P08684 whole entry): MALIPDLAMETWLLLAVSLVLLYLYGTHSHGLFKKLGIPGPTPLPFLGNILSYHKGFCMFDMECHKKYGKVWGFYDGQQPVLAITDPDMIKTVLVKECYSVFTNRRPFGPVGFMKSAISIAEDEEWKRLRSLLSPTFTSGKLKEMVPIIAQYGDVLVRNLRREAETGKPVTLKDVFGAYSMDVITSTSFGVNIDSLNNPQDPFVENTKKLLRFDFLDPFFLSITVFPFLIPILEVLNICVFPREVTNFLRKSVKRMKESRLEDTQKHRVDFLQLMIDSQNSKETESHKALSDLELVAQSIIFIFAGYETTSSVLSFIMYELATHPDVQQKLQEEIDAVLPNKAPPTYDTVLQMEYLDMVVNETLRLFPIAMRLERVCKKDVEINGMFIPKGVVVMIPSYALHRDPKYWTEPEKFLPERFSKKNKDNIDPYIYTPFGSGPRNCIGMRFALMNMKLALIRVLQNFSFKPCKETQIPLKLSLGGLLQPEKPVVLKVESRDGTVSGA
Sequence of Cytochrome P450 2B6 (P20813 whole entry): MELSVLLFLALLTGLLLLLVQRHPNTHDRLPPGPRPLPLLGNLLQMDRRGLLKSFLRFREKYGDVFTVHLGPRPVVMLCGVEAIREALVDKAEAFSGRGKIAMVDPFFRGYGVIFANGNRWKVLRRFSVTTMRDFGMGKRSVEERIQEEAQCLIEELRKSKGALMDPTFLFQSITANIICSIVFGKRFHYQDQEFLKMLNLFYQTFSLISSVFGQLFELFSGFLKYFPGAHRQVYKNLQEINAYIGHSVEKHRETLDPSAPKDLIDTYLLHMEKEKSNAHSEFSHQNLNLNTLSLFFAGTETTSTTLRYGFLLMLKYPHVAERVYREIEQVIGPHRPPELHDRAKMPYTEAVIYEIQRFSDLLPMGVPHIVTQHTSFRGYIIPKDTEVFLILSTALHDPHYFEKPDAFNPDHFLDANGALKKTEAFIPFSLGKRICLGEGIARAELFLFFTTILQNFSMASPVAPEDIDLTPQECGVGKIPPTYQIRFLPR
Sequence of Cytochrome P450 2C9 (P11712 whole entry): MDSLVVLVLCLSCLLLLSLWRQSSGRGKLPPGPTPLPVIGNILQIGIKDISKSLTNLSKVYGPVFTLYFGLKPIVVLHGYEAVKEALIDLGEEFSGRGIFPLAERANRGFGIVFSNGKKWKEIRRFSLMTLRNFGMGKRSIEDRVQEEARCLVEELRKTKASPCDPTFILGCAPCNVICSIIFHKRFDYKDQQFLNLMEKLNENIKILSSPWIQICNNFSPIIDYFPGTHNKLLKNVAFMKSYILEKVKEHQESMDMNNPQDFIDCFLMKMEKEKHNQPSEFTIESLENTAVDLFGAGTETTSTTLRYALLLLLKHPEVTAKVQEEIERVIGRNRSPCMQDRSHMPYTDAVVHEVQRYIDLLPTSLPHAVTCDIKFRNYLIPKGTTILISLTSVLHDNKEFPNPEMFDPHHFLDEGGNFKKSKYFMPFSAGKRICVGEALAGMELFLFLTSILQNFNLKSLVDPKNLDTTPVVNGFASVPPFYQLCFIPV

In the case of `COc1ccsc1C1CNCCO1` (stereo in doubt; 25a), the CLint scaled at 1 µM [1] is reported as less than 0.408 L/h/kg, the IC50 [2] is reported as greater than 50 µM and the CLint scaled at 1 µM [3] is reported as less than 0.81 L/h/kg. The IC50 [4] was greater than 50 µM, the IC50 [5] was greater than 50 µM and the remaining at 6 h [6] was less than 20%. The fraction unbound [7] was 0.872, the IC50 [8] was greater than 50 µM and the IC50 [9] was greater than 50 µM. It also gave a Papp A→B at 2 µM [10] of 460 nm/s, an EC50 [11] of 4.39 µM and an efflux ratio at 2 µM [12] of 0.6. It also gave a fraction unbound [13] of 0.73, an IC50 [14] greater than 50 µM and a fraction unbound [15] of 0.747. The IC50 [16] was greater than 50 µM.
